Values after ≈ are worked out from the molar mass of the structure shown. Like-named read-outs stand apart in the source and are kept apart here. Marks after values point to notes of the source that are not given here.
What was measured:
[1] = WST-8 cell viability assay after PDT, MSTO-211H; type: cell-based, human; details: human, MSTO-211H cells, dark; for viability at 48 h, 5 μg/mL: read-out: cell viability relative to untreated control
Protocol: (§1) Porphyrin PS stock solutions 4, 5, and 6 (Scheme 1) were prepared by dissolving a 5 mg aliquot in 500 μL of 1 M NaOH. This was added to 9.5 mL of complete media to prepare a 500 μg/mL stock solution. Stock solutions were filter sterilized using a Millipore PES membrane filter (Merck, Watford, UK). Working solutions were prepared immediately before PDT experiments and consisted of six treatments: an untreated control, vehicle control, and four porphyrin concentrations (5, 10, 15, and 20 μg/mL).
(§2) Cells were detached using a trypsin/EDTA solution (Lonza). Trypan blue (0.4% v/v) exclusion was used to count viable cells before seeded into 96-well plates (Nunc) at a density of 5 × 10^3 cells per well in 200 μL of complete RPMI. Cell culture plates were seeded approximately 24 h before PDT. Media was aspirated and replaced with equal volumes of the respective PS treatment. For the purpose of background subtraction, PS treatments were also added to wells without cells. Following 3 h of incubation (37 °C, 5% CO2:95% air), plates were irradiated for 15 min on a 15 W light box (UVP, Cambridge, UK). Experiments performed parallel to dark-treated control plates.
(§3) Cell viability was assessed by the colorimetric WST-8 assay. […] The plates were incubated for 3 h (37 °C, 5% CO2:95% air) and then analyzed at 450 nm using a Clariostar Plate Reader (BMG Labtech, Ortenberg, Germany). Corrected absorbance was calculated in each case by subtraction of the media only controls. Finally, percentage cell viability was expressed relative to untreated control values.

[2] = test system: MSTO-211H cells; experiment: WST-8 cell viability assay after PDT, MSTO-211H; type: cell-based, human; details: Homo sapiens, 5 μg/mL, light, 48 h, read-out: cell viability relative to untreated control
Protocol: as §1, §2, §3

[3] = test system: Met-5a cells; experiment: Annexin V-FITC/PI cell death analysis by flow cytometry, Met-5a; type: cell-based, human; details: for EC50: Homo sapiens, read-out: EC50 (50% reduction in viable cell populations), PDT activity
Protocol: (§4) Cells were harvested in accordance with methods previously described and seeded into 24-well plates (Nunc, London, UK) at a density of 2 × 10^5 cells per well in 1000 μL of complete RPMI; the culture plates were seeded approximately 24 h before PDT. Cell treatment and irradiation was performed in accordance with methods previously described.
(§5) Annexin V-FITC/PI staining and cell death analysis was performed at both 24- and 48 h time points following PDT (representative flow cytometry dot-plots from Annexin V-FITC/PI-stained cells in Supplementary Materials-Figure S2). Non-adherent cells were harvested through the removal of culture medium and adherent monolayers were trypsinized and returned to the removed media. Harvested cells were removed from media via centrifugation (5 min, 400× g) (VWR Mega Star, Leicestershire, UK) and resuspended in Annexin V Binding Buffer. Following a second centrifugation, Annexin V Binding Buffer was discarded, and cell pellets were resuspended in the residual volume. Cells were stained with Annexin V-FITC (5 μL) and PI (10 μL) and incubated at room temperature for 15 min protected from light. 200 µL of Annexin V Binding Buffer was added prior to immediate analysis using a BD FACSCalibur (BD Biosciences, Wokingham, UK) and data from 10,000 events was collected. Flow cytometry results were analyzed using FlowJo™ v10.8 Software (BD Life Sciences). Quadrants consisted of Viable (Annexin V-FITC^−/PI^−), early stage apoptotic (Annexin V-FITC^+/PI^−) and late-stage apoptotic/necrotic (Annexin V-FITC^+/PI^+) populations.

[4] = test system: NCI-H28 cells; experiment: Annexin V-FITC/PI cell death analysis by flow cytometry, NCI-H28; type: cell-based, human; details: light; for EC50: read-out: EC50 (50% reduction in viable cell populations), PDT activity
Protocol: as §4, §5

[5] = test system: MSTO-211H cells; experiment: Annexin V-FITC/PI cell death analysis by flow cytometry, MSTO-211H; type: cell-based, human; details: light; for EC50: read-out: EC50 (50% reduction in viable cell populations), PDT activity
Protocol: as §4, §5

[6] = WST-8 cell viability assay after PDT, Met-5a; type: cell-based; details: human, Met-5a cells, light, read-out: cell viability relative to untreated control
Protocol: as §1, §2
Cell viability was assessed by the colorimetric WST-8 assay. Following 24 h of incubation (37 °C, 5% CO2:95% air), 10 μL of WST-8 was added to each cell-containing well of the 96-well plates. The plates were incubated for 3 h (37 °C, 5% CO2:95% air) and then analyzed at 450 nm using a Clariostar Plate Reader (BMG Labtech, Ortenberg, Germany). Corrected absorbance was calculated in each case by subtraction of the media only controls. Finally, percentage cell viability was expressed relative to untreated control values.

[7] = test system: MSTO-211H cells; experiment: Cellular localization by high content fluorescence microscopy; type: cell-based, human; details: 24 h incubation
Protocol: Cells were harvested in accordance with methods previously described and seeded into 24-well plates (Nunc, London, UK) at a density of 25,000 treated with porphyrin working solutions made up from the porphyrin PS stock solutions and incubated for 24 h. The cells were visualized using a Cytation 5 (Agilent Technologies, Cheadle, UK) high content microscopy platform at 20× magnification.

[8] = Annexin V-FITC/PI cell death analysis by flow cytometry, NCI-H28; type: cell-based, human; details: human, NCI-H28 cells, read-out: viable cells
Protocol: as §4, §5

[9] = WST-8 cell viability assay after PDT, NCI-H28; type: cell-based, human; details: human, NCI-H28 cells, NCI-H28, 5 μg/mL, dark, read-out: cell viability relative to untreated control
Protocol: as §1
as §2, with “Experiments performed parallel to dark-treated control plates.” left out
as §3, with “Finally, percentage cell viability was expressed relative to untreated control values.” left out

[10] = test system: NCI-H28 cells; experiment: WST-8 cell viability assay after PDT, NCI-H28; type: cell-based, human; details: Homo sapiens; NCI-H28, 5 μg/mL, light, 48 h; read-out: cell viability relative to untreated control
Protocol: as §1
as §2, with “Experiments performed parallel to dark-treated control plates.” left out
as §3, with “Finally, percentage cell viability was expressed relative to untreated control values.” left out

[11] = UV/vis absorbance spectroscopy in DMSO, water and 1 M HCl (stacking, aqueous solubility); type: physicochemical; details: absorption spectra in water vs DMSO and 1 M HCl
Protocol: UV/vis absorbance spectroscopy in DMSO, water and 1 M HCl. For each of the porphyrins 5, 6, and 7, 5 mg, was dissolved in 30 µL of 1 M NaOH H this was diluted to 5 mL with distilled to give stock solutions of concentrations 0.926 mM, 0.88 mM and 0.77 mM, respectively. In a quartz 96 well plate, 20 µL was added to a well and diluted to a volume of 320 µL with either DMSO, water or 1 M HCl.

[12] = Annexin V-FITC/PI cell death analysis by flow cytometry, MSTO-211H; type: cell-based, human; details: human, MSTO-211H cells, dark, 48 h, read-out: viable cells
Protocol: as §4, §5

[13] = Homo sapiens, NCI-H28, 24 h, NCI-H28, 24 h time point
[14] = Homo sapiens, NCI-H28, 48 h, NCI-H28, 48 h time point
[15] = 20 μg/mL, time point not stated
[16] = Homo sapiens, 24 h, 24 h time point
[17] = Homo sapiens, 48 h, 48 h time point

O=C(O)CCCCCOc1cccc(-c2c3nc(c(-c4cccc(OCCCCCC(=O)O)c4)c4ccc([nH]4)c(-c4cccc(OCCCCCC(=O)O)c4)c4nc(c(-c5cccc(OCCCCCC(=O)O)c5)c5ccc2[nH]5)C=C4)C=C3)c1 [C6SHU]
viability at 48 h, 5 μg/mL [1]: 119%
viability at 5 µg/mL [2]: 38%
EC50 ([3]; 24 h time point, light): > 20 µg/mL
EC50 ([3]; 48 h time point, light): > 20 µg/mL
EC50 [4, 13]: > 20 µg/mL
EC50 [4, 14]: > 20 µg/mL
IC50 ([4]; Homo sapiens, NCI-H28, NCI-28 as printed, time point not stated, read-out: IC50, PDT effect): > 20 µg/mL
viability at 20 µg/mL ([4]; Homo sapiens, NCI-H28, 20 μg/mL, time point not stated, read-out: viable cells): 59%
apoptotic cell population [5, 15]: 23%
necrotic cell population [5, 15]: 50%
viability at 20 µg/mL ([5]; Homo sapiens, 20 μg/mL, time point not stated, read-out: viable cell population): 20%
EC50 [5, 16]: 14 µg/mL (≈ 12.3 µM)
EC50 [5, 17]: 14 ± 4 µg/mL (≈ 12.3 µM)

O=C(O)CCCCCCOc1cccc(-c2c3nc(c(-c4cccc(OCCCCCCC(=O)O)c4)c4ccc([nH]4)c(-c4cccc(OCCCCCCC(=O)O)c4)c4nc(c(-c5cccc(OCCCCCCC(=O)O)c5)c5ccc2[nH]5)C=C4)C=C3)c1 [C7SHU]
viability at 24 h, 5 μg/mL [6]: 66%
viability at 48 h, 5 μg/mL [6]: 30%
EC50 ([3]; 24 h time point, light): > 20 µg/mL
EC50 ([3]; 48 h time point, light): > 20 µg/mL
cellular localization [7]: localize in the cytosolic region
viability at 48 h, 10 μg/mL ([8]; NCI-H28, 10 μg/mL, 48 h): 75%
EC50 [4, 13]: > 20 µg/mL
EC50 [4, 14]: > 20 µg/mL
EC50 (50% reduction in viable cell populations), PDT activity ([4]; NCI-H28, 24 h time point): >20 ^a μg/mL
EC50 [5, 16]: 9.6 ± 3 µg/mL (≈ 8.06 µM)
EC50 [5, 17]: 7.7 ± 2 µg/mL (≈ 6.46 µM)

O=C(O)CCCCOc1cccc(-c2c3nc(c(-c4cccc(OCCCCC(=O)O)c4)c4ccc([nH]4)c(-c4cccc(OCCCCC(=O)O)c4)c4nc(c(-c5cccc(OCCCCC(=O)O)c5)c5ccc2[nH]5)C=C4)C=C3)c1 [C5SHU]
viability at 48 h, 5 μg/mL [9]: 116%
viability at 5 µg/mL [10]: 16%
viability at 48 h, 5 μg/mL [1]: 100%
viability at 48 h, 15 μg/mL ([1]; 15 μg/mL, read-out: dark toxicity (cell viability)): 30%
viability at 48 h, 20 μg/mL ([1]; 20 μg/mL, read-out: dark toxicity (cell viability)): 26%
viability at 5 µg/mL [2]: 22%
viability at 24 h, 5 μg/mL [6]: ~28%
viability at 48 h, 5 μg/mL [6]: ~11%
stacking in aqueous solutions [11]: least evidence of stacking
cell death ([3]; 24 h, all dose concentrations): no significant cell death
dark toxicity ([3]; 24 h, all dose concentrations): negligible dark toxicity
dark toxicity ([3]; 48 h): Negligible dark toxicity
predominant mode of cell death ([3]; 48 h, light): necrosis
EC50 ([3]; 24 h time point, light): > 20 µg/mL
EC50 ([3]; 48 h time point, light): 5.1 ± 1 µg/mL (≈ 4.73 µM)
viability ([8]; NCI-H28, dark, unchanged with porphyrin dose): ~95%
EC50 [4, 13]: 7.8 µg/mL (≈ 7.23 µM)
EC50 [4, 14]: 6 ± 1 µg/mL (≈ 5.56 µM)
apoptotic cell population ([4]; NCI-H28, 10 μg/mL, 24 h): 16%
necrotic cell population ([4]; NCI-H28, 10 μg/mL, 24 h): 53%
EC50 (50% reduction in viable cell populations), PDT activity ([4]; NCI-H28, 24 h time point): 7.7 ± 1 µg/mL (≈ 7.13 µM)
viability at 48 h, 15 μg/mL ([12]; 15 μg/mL): 63.6%
viability at 48 h, 20 μg/mL ([12]; 20 μg/mL): 46.1%
apoptotic cell population ([5]; 10 μg/mL, 24 h): 49%
necrotic cell population ([5]; 10 μg/mL, 24 h): 34%
EC50 (50% reduction in viable cell populations), PDT activity ([5]; 24 h time point): 7.8 ± 3 µg/mL (≈ 7.23 µM)
EC50 [5, 16]: 7.7 µg/mL (≈ 7.13 µM)
EC50 [5, 17]: 2.8 ± 1.5 µg/mL (≈ 2.59 µM)
